Experimental data published in paper PMC10590419, “Structural and mechanistic insights into the inhibition of respiratory syncytial virus polymerase by a non-nucleoside inhibitor” (Communications Biology, 2023).
Several values for one entry are separate records, joined by “and”; a condition that tells them apart may be missing. Equal entries are not always repeated. Where two headings read alike, the source gives them in different places.

Target: recombinant RSV L+P (Human respiratory syncytial virus A, UniProt P28887)
Assay: Primed single nucleotide incorporation (SNI) gel assay, recombinant RSV L+P
Assay type: biochemical, Human RSV (strain A2)
Settings: for pGCG formation, % inhbition / pGCGA formation, % inhbition / pGCGAA formation, % inhbition: le-11, +3 site
Method: RNA polymerase reaction samples consisted of 0.2 μM recombinant RSV L-P polymerase, 0.2 μM of an RNA template (Le11 or Tr14), and 400 μM of a short primer (sequences as indicated in the figures), mixed in a buffer containing 50 mM Tris pH 7.4, 2 mM dithiothreitol and 6 mM MgCl2. For the assay in Fig. 1d, reactions were started by adding 100 nM [α-^32P]GTP (3000 Ci/mmol) tracer and incubated at 30 °C for 10 min. […] Reactions were stopped by adding an equal volume of gel loading buffer containing 90% formamide, 50 mM EDTA, 0.05% Xylene Cyanol, and Bromophenol Blue. Samples were denatured at 95 °C for 5 min and run on a 22.5% polyacrylamide urea sequencing gel at 80 W. The gel was transferred onto a Whatman cellulose chromatography paper (Millipore Sigma) and dried on a gel dryer (Bio-Rad) for 1 h. The dried gel was exposed to a phosphor-screen, scanned on a Typhoon phosphorimager (GE Healthcare), and quantified using ImageQuant (GE Healthcare).

[1] = le-11, +1 site, 1 uM, replicates, 1 µM
[2] = tr-14, +1 site, 0.00390625 uM, replicates, 0.00390625 µM
[3] = tr-14, +1 site, 0.0078125 uM, replicates, 0.0078125 µM
[4] = tr-14, +1 site, 0.015625 uM, replicates, 0.015625 µM
[5] = tr-14, +1 site, 0.03125 uM, replicates, 0.03125 µM
[6] = tr-14, +1 site, 0.0625 uM, replicates, 0.0625 µM
[7] = tr-14, +1 site, 0.125 uM, replicates, 0.125 µM
[8] = tr-14, +1 site, 0.25 uM, replicates, 0.25 µM
[9] = tr-14, +1 site, 0.5 uM, replicates, 0.5 µM
[10] = tr-14, +1 site, 1 uM, replicates, 1 µM

Sequence of recombinant RSV L+P (P28887 whole entry): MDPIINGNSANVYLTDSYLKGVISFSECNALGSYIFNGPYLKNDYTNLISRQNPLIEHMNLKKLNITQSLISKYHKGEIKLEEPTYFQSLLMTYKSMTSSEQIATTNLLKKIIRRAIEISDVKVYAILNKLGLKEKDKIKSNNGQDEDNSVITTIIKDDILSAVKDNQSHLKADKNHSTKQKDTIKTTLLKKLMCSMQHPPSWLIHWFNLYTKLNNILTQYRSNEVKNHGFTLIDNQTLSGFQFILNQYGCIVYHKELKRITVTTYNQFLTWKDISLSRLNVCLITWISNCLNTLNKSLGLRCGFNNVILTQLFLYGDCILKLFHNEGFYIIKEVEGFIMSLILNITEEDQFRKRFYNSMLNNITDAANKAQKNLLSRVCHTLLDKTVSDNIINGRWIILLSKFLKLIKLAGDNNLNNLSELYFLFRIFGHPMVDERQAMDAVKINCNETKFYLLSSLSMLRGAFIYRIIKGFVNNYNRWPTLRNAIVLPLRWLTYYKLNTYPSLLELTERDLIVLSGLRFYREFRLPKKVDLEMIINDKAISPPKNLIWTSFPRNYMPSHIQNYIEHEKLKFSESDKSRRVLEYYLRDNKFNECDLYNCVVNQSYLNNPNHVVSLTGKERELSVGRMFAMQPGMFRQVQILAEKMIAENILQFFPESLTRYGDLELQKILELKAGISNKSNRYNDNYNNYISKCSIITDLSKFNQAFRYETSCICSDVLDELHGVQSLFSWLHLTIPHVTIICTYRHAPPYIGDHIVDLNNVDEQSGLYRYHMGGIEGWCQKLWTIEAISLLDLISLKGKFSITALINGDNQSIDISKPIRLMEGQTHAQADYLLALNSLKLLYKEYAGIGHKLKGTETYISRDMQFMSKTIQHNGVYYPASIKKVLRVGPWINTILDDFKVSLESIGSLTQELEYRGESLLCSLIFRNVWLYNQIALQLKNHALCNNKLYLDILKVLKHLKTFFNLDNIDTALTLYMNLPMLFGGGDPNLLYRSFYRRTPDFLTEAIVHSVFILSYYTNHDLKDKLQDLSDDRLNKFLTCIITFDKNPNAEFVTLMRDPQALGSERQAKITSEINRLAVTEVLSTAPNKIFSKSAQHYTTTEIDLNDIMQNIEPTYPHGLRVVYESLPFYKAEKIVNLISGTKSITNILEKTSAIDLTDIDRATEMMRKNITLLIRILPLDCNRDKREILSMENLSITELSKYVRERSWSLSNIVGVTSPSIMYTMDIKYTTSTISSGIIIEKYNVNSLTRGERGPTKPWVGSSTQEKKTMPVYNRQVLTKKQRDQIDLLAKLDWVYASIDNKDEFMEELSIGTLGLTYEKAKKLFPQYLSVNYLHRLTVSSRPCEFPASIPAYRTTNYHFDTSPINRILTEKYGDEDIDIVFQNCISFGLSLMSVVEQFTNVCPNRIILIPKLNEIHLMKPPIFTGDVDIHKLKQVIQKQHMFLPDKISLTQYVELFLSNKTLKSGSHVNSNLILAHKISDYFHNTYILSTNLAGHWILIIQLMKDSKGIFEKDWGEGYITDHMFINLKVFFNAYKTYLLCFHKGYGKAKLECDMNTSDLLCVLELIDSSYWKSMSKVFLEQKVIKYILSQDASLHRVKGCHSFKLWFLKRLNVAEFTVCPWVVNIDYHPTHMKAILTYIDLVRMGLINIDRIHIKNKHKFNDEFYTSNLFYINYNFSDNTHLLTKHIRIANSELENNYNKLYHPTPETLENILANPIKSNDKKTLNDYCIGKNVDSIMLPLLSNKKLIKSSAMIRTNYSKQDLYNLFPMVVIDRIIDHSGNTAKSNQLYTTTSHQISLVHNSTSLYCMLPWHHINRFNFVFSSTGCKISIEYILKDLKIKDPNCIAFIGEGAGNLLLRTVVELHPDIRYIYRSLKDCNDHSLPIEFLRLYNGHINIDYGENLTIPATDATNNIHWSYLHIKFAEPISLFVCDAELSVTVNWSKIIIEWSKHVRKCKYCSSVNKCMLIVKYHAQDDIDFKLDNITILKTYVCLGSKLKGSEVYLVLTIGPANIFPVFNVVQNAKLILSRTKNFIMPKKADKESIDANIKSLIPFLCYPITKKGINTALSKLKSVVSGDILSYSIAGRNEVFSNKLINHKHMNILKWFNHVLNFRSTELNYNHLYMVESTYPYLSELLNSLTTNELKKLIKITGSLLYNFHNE
Sequence of recombinant RSV L+P (P03421 whole entry, further chain): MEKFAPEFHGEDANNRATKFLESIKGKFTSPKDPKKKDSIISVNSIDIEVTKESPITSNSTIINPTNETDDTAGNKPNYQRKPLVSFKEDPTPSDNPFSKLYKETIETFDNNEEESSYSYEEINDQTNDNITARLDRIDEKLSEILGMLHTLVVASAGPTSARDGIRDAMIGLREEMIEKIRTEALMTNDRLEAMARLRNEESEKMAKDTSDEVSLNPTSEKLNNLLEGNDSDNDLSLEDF

COc1cc(C(=O)NC[C@](O)(c2cc(C(C)(C)O)c(F)c(-c3ccc(F)cc3)n2)C(F)(F)F)cc2cc(C)nnc12 [JNJ-8003]
inhibition at 0.5 µM (le-11, +1 site, 0.5 uM, replicates, read-out: pACG formation, % inhibition): 92.2% | inhibition at 0.5 µM (le-11, +1 site, 0.5 uM, replicates, read-out: pACGC formation, % inhibition): 16.5% | inhibition at 0.5 µM (le-11, +1 site, 0.5 uM, replicates, read-out: pACGCG formation, % inhibition): 92% | pACG formation, % inhibition [1]: 87.3809% | pACGCG formation, % inhibition [1]: 94.5412% | inhibition at 1 µM (le-11, +1 site, 1 uM, replicates, read-out: pACG formation, % inhibition): 92.2% | inhibition at 1 µM (le-11, +1 site, 1 uM, replicates, read-out: pACGC formation, % inhibition): 32.4% | inhibition at 1 µM (le-11, +1 site, 1 uM, replicates, read-out: pACGCG formation, % inhibition): 96.1% | pGCG formation, % inhbition (0.00390625 uM, replicates): 23.7355% and 15.5622% | pGCGA formation, % inhbition (0.00390625 uM, replicates): 16.5629% and 19.135% | pGCGAA formation, % inhbition (0.00390625 uM, replicates): 30.4505% and 24.1004% | pGCG formation, % inhbition (0.0078125 uM, replicates): 29.8775% and 21.4895% | pGCGA formation, % inhbition (0.0078125 uM, replicates): 17.4928% and 21.885% | pGCGAA formation, % inhbition (0.0078125 uM, replicates): 52.8128% and 27.8666% | pGCG formation, % inhbition (0.015625 uM, replicates): 50.6818% and 35.2042% | pGCGA formation, % inhbition (0.015625 uM, replicates): 18.8117% and 25.399% | pGCGAA formation, % inhbition (0.015625 uM, replicates): 51.4133% and 43.0842% | pGCG formation, % inhbition (0.03125 uM, replicates): 80.9404% and 57.9787% | pGCGA formation, % inhbition (0.03125 uM, replicates): 58.0899% and 36.3323% | pGCGAA formation, % inhbition (0.03125 uM, replicates): 92.0704% and 68.8528% | pGCG formation, % inhbition (0.0625 uM, replicates): 96.7556% and 96.0463% | pGCGA formation, % inhbition (0.0625 uM, replicates): 77.4419% and 86.4681% | pGCGAA formation, % inhbition (0.0625 uM, replicates): 98.2035% and 97.0821% | pGCG formation, % inhbition (0.125 uM, replicates): 97.7751% and 97.5727% | pGCGA formation, % inhbition (0.125 uM, replicates): 83.7601% and 82.1258% | pGCGAA formation, % inhbition (0.125 uM, replicates): 98.5207% and 97.9021% | pGCG formation, % inhbition (0.25 uM, replicates): 97.8446% and 96.8207% | pGCGA formation, % inhbition (0.25 uM, replicates): 81.8016% and 75.4758% | pGCGAA formation, % inhbition (0.25 uM, replicates): 98.388% and 97.2094% | pGCG formation, % inhbition (0.5 uM, replicates): 96.68% and 97.1903% | pGCGA formation, % inhbition (0.5 uM, replicates): 77.4429% and 81.101% | pGCGAA formation, % inhbition (0.5 uM, replicates): 98.095% and 97.9035% | pGCG formation, % inhbition (1 uM, replicates): 97.6913% and 97.6125% | pGCGA formation, % inhbition (1 uM, replicates): 86.6689% and 82.9875% | pGCGAA formation, % inhbition (1 uM, replicates): 98.8723% and 98.1005% | IC50 (le-11 and tr-14 templates, +1 and +3 site, read-out: IC50 values in the SNI assays): 0.017 to 0.032 µM | pACG formation, % inhibition [2]: 31.6% | pACGAG formation, % inhibition [2]: 12.8614% and 26.6827% | inhibition at 0.00390625 µM (tr-14, +1 site, 0.00390625 uM, replicates, read-out: pACG formation, % inhibition): 28.1% | pACG formation, % inhibition [3]: 29.3% | pACGAG formation, % inhibition [3]: 35.8415% | inhibition at 0.0078125 µM (tr-14, +1 site, 0.0078125 uM, replicates, read-out: pACG formation, % inhibition): 41.6% | inhibition at 0.0078125 µM (tr-14, +1 site, 0.0078125 uM, replicates, read-out: pACGAG formation, % inhibition): 21.3% | pACG formation, % inhibition [4]: 48.5% | pACGAG formation, % inhibition [4]: 57.7598% | inhibition at 0.015625 µM (tr-14, +1 site, 0.015625 uM, replicates, read-out: pACG formation, % inhibition): 62.7% | inhibition at 0.015625 µM (tr-14, +1 site, 0.015625 uM, replicates, read-out: pACGAG formation, % inhibition): 50.6% | pACG formation, % inhibition [5]: 79.8% | pACGAG formation, % inhibition [5]: 90.4225% | inhibition at 0.03125 µM (tr-14, +1 site, 0.03125 uM, replicates, read-out: pACG formation, % inhibition): 93.9% | inhibition at 0.03125 µM (tr-14, +1 site, 0.03125 uM, replicates, read-out: pACGA formation, % inhibition): 19.2% | inhibition at 0.03125 µM (tr-14, +1 site, 0.03125 uM, replicates, read-out: pACGAG formation, % inhibition): 92.2% | pACG formation, % inhibition [6]: 93.7% | pACGAG formation, % inhibition [6]: 96.2948% | inhibition at 0.0625 µM (tr-14, +1 site, 0.0625 uM, replicates, read-out: pACG formation, % inhibition): 95.6% | inhibition at 0.0625 µM (tr-14, +1 site, 0.0625 uM, replicates, read-out: pACGA formation, % inhibition): 23% | inhibition at 0.0625 µM (tr-14, +1 site, 0.0625 uM, replicates, read-out: pACGAG formation, % inhibition): 95.3% | pACG formation, % inhibition [7]: 94.1% | pACGAG formation, % inhibition [7]: 96.5623% | inhibition at 0.125 µM (tr-14, +1 site, 0.125 uM, replicates, read-out: pACG formation, % inhibition): 95.7% | inhibition at 0.125 µM (tr-14, +1 site, 0.125 uM, replicates, read-out: pACGA formation, % inhibition): 18.9% | inhibition at 0.125 µM (tr-14, +1 site, 0.125 uM, replicates, read-out: pACGAG formation, % inhibition): 95.9% | pACG formation, % inhibition [8]: 94.4% | pACGAG formation, % inhibition [8]: 96.9953% | inhibition at 0.25 µM (tr-14, +1 site, 0.25 uM, replicates, read-out: pACG formation, % inhibition): 95.3% | inhibition at 0.25 µM (tr-14, +1 site, 0.25 uM, replicates, read-out: pACGA formation, % inhibition): 21.3% | inhibition at 0.25 µM (tr-14, +1 site, 0.25 uM, replicates, read-out: pACGAG formation, % inhibition): 96.3% | pACG formation, % inhibition [9]: 93.2% | pACGAG formation, % inhibition [9]: 97.0094% | inhibition at 0.5 µM (tr-14, +1 site, 0.5 uM, replicates, read-out: pACG formation, % inhibition): 93.9% | inhibition at 0.5 µM (tr-14, +1 site, 0.5 uM, replicates, read-out: pACGAG formation, % inhibition): 95.7% | pACG formation, % inhibition [10]: 91.9% | pACGAG formation, % inhibition [10]: 97.3064% | inhibition at 1 µM (tr-14, +1 site, 1 uM, replicates, read-out: pACG formation, % inhibition): 92.2% | inhibition at 1 µM (tr-14, +1 site, 1 uM, replicates, read-out: pACGA formation, % inhibition): 39% | inhibition at 1 µM (tr-14, +1 site, 1 uM, replicates, read-out: pACGAG formation, % inhibition): 97%
